The values below come from US11634447B2 (priority 2012, dated 2023).

For this test, the system named is bacterial strain LF82 binding to the glycoprotein BSA-(Mannose)3. The test can be described thus: Bacterial Binding Assay (BBA). It counts as cell-based, Escherichia coli. Particulars: read-out: Bacterial Binding Assay IC50, LF82/Luciferase strain binding to BSA-(Man)3 coated plates, luminescence. An outline of the steps: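 Inhibition of LF82/luciferase E. coli adhesion is read as luminescence after washing off unbound cells. Compound and bacteria (10^7 per well) are co-incubated 40-75 min at room temperature on wells coated with 0.5-2 μg/mL BSA-(Man)3, with BSA-only wells as background; IC50 values derived.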
Regarding `CCc1cc(C#C[C@H]2O[C@H](CO)[C@@H](O)[C@H](O)[C@@H]2O)c(CC)cc1C#C[C@H]1O[C@H](CO)[C@@H](O)[C@H](O)[C@@H]1O` [Compound 86, (2R,3S,4R,5S,6R)-2-[2-[2,5-diethyl-4-[2-[(2R,3S,4R,5S,6R)-3,4,5-trihydroxy-6-(hydroxymethyl)tetrahydropyran-2-yl]ethynyl]phenyl]ethynyl]-6-(hydroxymethyl)tetrahydropyran-3,4,5-triol], the IC50 worked out at 22 nM.

With `Cc1cc(C#C[C@H]2O[C@H](CO)[C@@H](O)[C@H](O)[C@@H]2O)c(Cl)cc1C#C[C@H]1O[C@H](CO)[C@@H](O)[C@H](O)[C@@H]1O` [Compound 90, (2R,3S,4R,5S,6R)-2-[2-[2-chloro-5-methy1-4-[2-[(2R,3S,4R,5S,6R)-3,4,5-trihydroxy-6-(hydroxymethyl)tetrahydropyran-2-yl]ethynyl]phenyl]ethynyl]-6-(hydroxymethyl)tetrahydropyran-3,4,5-triol], the IC50 came out at 36 nM.

As for `OC[C@H]1O[C@H](C#Cc2ccc(C#C[C@H]3O[C@H](CO)[C@@H](O)[C@H](O)[C@@H]3O)c(F)c2F)[C@@H](O)[C@@H](O)[C@@H]1O` [Compound 78, (2R,3S,4R,5S,6R)-2-[2-[2,3-difluoro-4-[2-[(2R,3S,4R,5S,6R)-3,4,5-trihydroxy-6-(hydroxymethyl)tetrahydropyran-2-yl]ethynyl]phenyl]ethynyl]-6-(hydroxymethyl)tetrahydropyran-3,4,5-triol], the IC50 amounted to 63 nM.

Take `CN1CCC(n2c3cc(C#C[C@H]4O[C@H](CO)[C@@H](O)[C@H](O)[C@@H]4O)ccc3c3ccc(C#C[C@H]4O[C@H](CO)[C@@H](O)[C@H](O)[C@@H]4O)cc32)CC1` [Compound 187, (2R,3S,4R,5S,6R)-2-(hydroxymethyl)-6-[2-[9-(1-methyl-4-piperidyl)-7-[2-[(2R,3S,4R,5S,6R)-3,4,5-trihydroxy-6-(hydroxymethyl)tetrahydropyran-2-yl]ethynyl]carbazol-2-yl]ethynyl]tetrahydropyran-3,4,5-triol]: the IC50 was determined as 1 nM.

Turning to `O=C(CCn1cccn1)c1c(C#C[C@H]2O[C@H](CO)[C@@H](O)[C@H](O)[C@@H]2O)ccc2c1C1(CCNCC1)c1cc(C#C[C@H]3O[C@H](CO)[C@@H](O)[C@H](O)[C@@H]3O)ccc1-2` [Compound 240, 1-[2,7-bis[2-[(2R,3S,4R,5S,6R)-3,4,5-trihydroxy-6-(hydroxymethyl)tetrahydropyran-2-yl]ethynyl]spiro[fluorene-9,4piperidine]-1yl]-3-pyrazol-1-yl-propan-1-one], the IC50 was determined as 0.05 nM.

For the compound `O=S1(=O)c2cc(C#C[C@H]3O[C@H](CO)[C@@H](O)[C@H](O)[C@@H]3O)ccc2-c2ccc(C#C[C@H]3O[C@H](CO)[C@@H](O)[C@H](O)[C@@H]3O)cc21` [Compound 161, (2R,3S,4R,5S,6R)-2-[2-[5,5-dioxo-7-[2-[(2R,3S,4R,5S,6R)-3,4,5-trihydroxy-6-(hydroxymethyl)tetrahydropyran-2-yl]ethynyl]dibenzothiophen-3-yl]ethynyl]-6-(hydroxymethyl)tetrahydropyran-3,4,5-triol], the IC50 came out at 12 nM.

`N#Cc1cc(C#C[C@H]2O[C@H](CO)[C@@H](O)[C@H](O)[C@@H]2O)ccc1C#C[C@H]1O[C@H](CO)[C@@H](O)[C@H](O)[C@@H]1O` [Compound 101, 2,5-bis[2-[(2R,3S,4R,5S,6R)-3,4,5-trihydroxy-6-(hydroxymethyl)tetrahydropyran-2-yl]ethynyl]benzonitrile]: the IC50 is 21 nM.

For the compound `OC[C@H]1O[C@H](C#Cc2ccc3c(c2)C2(CCC(O)CC2)c2cc(C#C[C@H]4O[C@H](CO)[C@@H](O)[C@H](O)[C@@H]4O)ccc2-3)[C@@H](O)[C@@H](O)[C@@H]1O` (some centres unmarked) [Compound 203], the IC50 turned out to be 0.04 nM.

With `O=C(c1ccn[nH]1)N1CCC2(CC1)c1cc(C#C[C@H]3O[C@H](CO)[C@@H](O)[C@H](O)[C@@H]3O)ccc1-c1ccc(C#C[C@H]3O[C@H](CO)[C@@H](O)[C@H](O)[C@@H]3O)cc12` [Compound 231], the IC50 came to 0.08 nM.

Consider `OC[C@H]1O[C@H](C#Cc2cccc3cccc(C#C[C@H]4O[C@H](CO)[C@@H](O)[C@H](O)[C@@H]4O)c23)[C@@H](O)[C@@H](O)[C@@H]1O` [Compound 137, (2R,3S,4R,5S,6R)-2-(hydroxymethyl)-6-[2-[8-[2-[(2R,3S,4R,5S,6R)-3,4,5-trihydroxy-6-(hydroxymethyl)tetrahydropyran-2-yl]ethynyl]-1-naphthyl]ethynyl]tetrahydropyran-3,4,5-triol], for which the IC50 turned out to be 700 nM.

With `OC[C@H]1O[C@H](C#Cc2ccc(C#C[C@H]3O[C@H](CO)[C@@H](O)[C@H](O)[C@@H]3O)c(Cc3ccccc3)c2)[C@@H](O)[C@@H](O)[C@@H]1O` [Compound 158, (2R,3S,4R,5S,6R)-2-[2-[3-benzyl-4-[2-[(2R,3S,4R,5S,6R)-3,4,5-trihydroxy-6-(hydroxymethyl)tetrahydropyran-2-yl]ethynyl]phenyl]ethynyl]-6-(hydroxymethyl)tetrahydropyran-3,4,5-triol], the IC50 turned out to be 11 nM.

Take `OC[C@H]1O[C@H](C#Cc2ccc3c(c2)C(O)c2cc(C#C[C@H]4O[C@H](CO)[C@@H](O)[C@H](O)[C@@H]4O)ccc2-3)[C@@H](O)[C@@H](O)[C@@H]1O` (stereo partly drawn) [Compound 195, (2R,3S,4R,5S,6R)-2-(hydroxymethyl)-6-[2-[9-hydroxy-7-[2-[(2R,3S,4R,5S,6R)-3,4,5-trihydroxy-6-(hydroxymethyl)tetrahydropyran-2-yl]ethynyl]-9H-fluoren-2-yl]ethynyl]tetrahydropyran-3,4,5-triol]: the IC50 was determined as 18 nM.

As to `Cc1cc(-c2ccc(-c3ccc([C@H]4O[C@H](CO)[C@@H](O)[C@H](O)[C@@H]4O)c(C)c3)c(C)n2)ccc1[C@H]1O[C@H](CO)[C@@H](O)[C@H](O)[C@@H]1O` [Compound 155, (2R,3S,4R,5S,6R)-2-(hydroxymethyl)-6-[2-methyl-4-[2-methyl-6-[3-methyl-4-[(2R,3S,4R,5S,6R)-3,4,5-trihydroxy-6-(hydroxymethyl)tetrahydropyran-2-yl]phenyl]-3-pyridyl]phenyl]tetrahydropyran-3,4,5-triol], the IC50 was 22 nM.

As to `Cc1cc(-c2ccc([C@H]3O[C@H](CO)[C@@H](O)[C@H](O)[C@@H]3O)cc2)ccc1[C@H]1O[C@H](CO)[C@@H](O)[C@H](O)[C@@H]1O` [Compound 64], the IC50 was found to be 15 nM.

For `Cc1c(C#C[C@H]2O[C@H](CO)[C@@H](O)[C@H](O)[C@@H]2O)cccc1[C@H]1O[C@H](CO)[C@@H](O)[C@H](O)[C@@H]1O` [Compound 148], the IC50 is 130 nM.

As to `OC[C@H]1O[C@H](C#Cc2ccc3[nH]c4ccc(C#C[C@H]5O[C@H](CO)[C@@H](O)[C@H](O)[C@@H]5O)cc4c3c2)[C@@H](O)[C@@H](O)[C@@H]1O` [Compound 108, (2R,3S,4R,5S,6R)-2-(hydroxymethyl)-6-[2-[6-[2-[(2R,3S,4R,5S,6R)-3,4,5-trihydroxy-6-(hydroxymethyl)tetrahydropyran-2-yl]ethynyl]-9H-carbazol-3-yl]ethynyl]tetrahydropyran-3,4,5-triol], the IC50 was 28 nM.

Consider `OC[C@H]1O[C@H](C#Cc2ccc3c(c2)C2(SCCCS2)c2cc(C#C[C@H]4O[C@H](CO)[C@@H](O)[C@H](O)[C@@H]4O)ccc2-3)[C@@H](O)[C@@H](O)[C@@H]1O` [Compound 191], for which the IC50 worked out at 0.36 nM.
